The text below walks through data of patent US20250129012A1, “ANTI-INFLAMMATORY AND ANALGESIC COMPOUNDS AND USE THEREOF” (JIANGSU ATOM BIOSCIENCE AND PHARMACEUTICAL CO., LTD., priority 2021, published 2025).

Structures are written as SMILES. Like-named read-outs stand apart in the source and are kept apart here. Marks after values point to notes of the source that are not given here.

Data set [1] concerns gouty arthritis in rats (urate crystals, left ankle joint). As to the kind of experiment: Pharmacodynamics experiment A on gouty arthritis in rats: pain score. More on the design: Pain score: scale not given here. Conditions: 0.6 mg/kg gavage; for Pain versus model group, in words: time points after modeling, P<0.05 or P<0.01; for Pain score: Mean ± SEM. The format is in vivo, SD rats. On the procedure: (§1) Compounds 2, 17, 26 and 27 were prepared by grinding with 0.5% CMC-Na into a suspension of the corresponding concentration (0.06 mg/mL) for gavage before administration, and the volume of administration was 10 mL/kg. […] Before use, 0.5% CMC-Na was used for grinding and prepared into a suspension of the corresponding concentration (0.06 mg/mL) for gavage, and the volume of drug administered was 10 mL/kg.
(§2) Each group of subjects was prepared into a suspension of the corresponding concentration, and the administration volume was 10 mL/kg.
(§3) The crystalline arthritis model was prepared by intra-articular injection of urate crystals (40 mg/mL, in the left ankle joint of each rat). Different doses of the test drug were given separately by gavage administration. The day of administration was defined as day 1 of the experiment, and the drug was administered once a day for 10 consecutive days (pre-administration of the drug for 7 days prior to modeling, modeling on day 8, and continuation of the drug for 3 days). The experiment ended on day 10.
The pain level was scored using the flexion and extension joint pain test scoring method at the same time point.
(§4) The data obtained from the experiment were statistically analyzed using IBM SPSS Statistics 22.0. All measurements were expressed as Mean±S.E.M s. The data were analyzed using SPSS 22.0 statistical software and variance chi-square test was performed on the parameters.

Data set [2] shares this test system. As to the kind of experiment: Pharmacodynamics experiment A on gouty arthritis in rats: gait score. More on the design: Gait Score: scale not given here. Conditions: 0.6 mg/kg gavage; for Gait versus model group, in words: time points after modeling, P<0.05 or P<0.01; for Gait Score: Mean ± SEM. The data set is classed as in vivo, SD rats. The procedure: as §1, §2, §3
The degree of lameness of the modeled joints was observed and scored at the same time point.
as §4

The test system is the same in data set [3]. Put plainly: Pharmacodynamics experiment A on gouty arthritis in rats: paw volume. The data set is classed as in vivo, SD rats. Particulars: for Paw volume versus model group, in words: time points after modeling; for Paw volume: Mean ± SEM. The procedure:
as §1, §2, §3
Paw volume was measured before administration, before urate injection, and 2, 4, 8, 10, 24, and 48 h after injection.
as §4

Data set [4] is described as follows: In vivo pharmacokinetics in SD rats. The procedure:
Compound stock solution preparation: an appropriate amount of solid powder of the compounds were weighed separately, a certain amount of DMSO was added and 20 mg/mL of stock solution was obtained under vortex ultrasound.
Preparation of test compound for gavage: an appropriate amount of compound stock solution was taken by pipette, a certain amount of Solutol HS15 solution was added, the mixture was vortexed for 1 minute, then a certain amount of saline was added, and 1 mg/mL of solution was obtained after mixing well.
Preparation of test compounds for intravenous injection: an appropriate amount of compound stock solution was taken by pipette separately, a certain amount of Solutol HS15 solution was added, the mixture was vortexed for 1 minute, then a certain amount of physiological saline was added and a solution of 0.5 mg/mL was obtained after mixing well.
The animals were fasted overnight before administration by gavage, and food was given 4 hours after administration, during which they were free to drink. Two groups were set for each test compound, intravenous injection group and oral administration group, and the dose and mode of administration were shown in Table 12 below.
The blood samples were centrifuged at 4° C. for 5 min at 2,000 g to separate the plasma. The plasma samples were analyzed by LC/MS/MS to detect the concentration of each test compound in the plasma samples.
The parameters related to the […] were obtained by calculations with WinNonlin® Professional software.

The mark [5] stands for this setting: 2 h after modeling, 0.6 mg/kg gavage.
Setting [6] is: 4 h after modeling, 0.6 mg/kg gavage.
Where [7] appears, read: 8 h after modeling, 0.6 mg/kg gavage.
Where [8] appears, read: 10 h after modeling, 0.6 mg/kg gavage.
The mark [9] stands for this setting: 24 h after modeling, 0.6 mg/kg gavage.
[10] abbreviates: 48 h after modeling, 0.6 mg/kg gavage.
The mark [11] stands for this setting: before modeling, 0.6 mg/kg gavage once a day.
The mark [12] stands for this setting: Sprague-Dawley, rat, in vivo, 10 mg/kg.
[13] abbreviates: Sprague-Dawley, rat, in vivo, iv, 1 mg/kg.
Where [14] appears, read: Sprague-Dawley, rat, in vivo, po, 10 mg/kg.

Consider `COc1cc2c(c(OC)c1OC)-c1ccc(NS(C)(=O)=O)c(=O)cc1[C@@H](NC(C)=O)CC2` [Compound 2, (S)—N-(1,2,3-trimethoxy-10-methanesulfonylamino-9-oxo-5,6,7,9-tetrahydrobenzo[a]heptalen-7-yl)acetamide], for which, in data set [1], the “Pain versus model group, in words” value is “significantly improved pain at 2 h, 4 h, 8 h, 10 h, 24 h, and 48 h”. Also, the Pain score is on record as 2.70 ± 0.68 in data set [1] (2 h after modeling); 1.30 ± 0.52 in data set [1] (4 h after modeling); 3.30 ± 0.54 in data set [1] (8 h after modeling); 2.20 ± 0.68 in data set [1] (10 h after modeling); 1.30 ± 0.62 in data set [1] (24 h after modeling); 1.00 ± 0.67 in data set [1] (48 h after modeling). The same molecule returned a Pain score in data set [1] (before modeling) of 0.00 ± 0.00. The “Gait versus model group, in words” value in data set [2] was “significantly improved the gait at 2 h, 8 h, 24 h, and 48 h”. In addition, the Gait Score in data set [2] (2 h after modeling) was 1.10 ± 0.10; in data set [2] (4 h after modeling) it was 1.10 ± 0.10; in data set [2] (8 h after modeling), 1.10 ± 0.10; in data set [2] (10 h after modeling) it was 1.20 ± 0.13; in data set [2] (24 h after modeling), 1.00 ± 0.00; in data set [2] (48 h after modeling), 1.00 ± 0.00. Further, the Gait Score in data set [2] (before modeling) is recorded as 0.00 ± 0.00. For the same molecule, the “Paw volume versus model group, in words” value in data set [3] (0.6 mg/kg gavage) was “significantly reduce the paw volume at 2 h, 4 h, and 48 h”. Moreover, the Paw volume is 2.51 ± 0.06* cm^3 in data set [3] (setting [5]); 2.54 ± 0.04* cm^3 in data set [3] (setting [6]); 2.63 ± 0.06 cm^3 in data set [3] (setting [7]); 2.59 ± 0.07 cm^3 in data set [3] (setting [8]); 2.52 ± 0.08 cm^3 in data set [3] (setting [9]); 2.35 ± 0.06* cm^3 in data set [3] (setting [10]). For the same molecule, the Paw volume in data set [3] (setting [11]) is recorded as 2.18 ± 0.02 cm^3.

For the molecule `COc1cc2c(c(OC)c1OC)-c1ccc(=O)c(OC3CCOC3)cc1[C@@H](NC(C)=O)CC2` (stereo partly drawn) [Compound 27, (S)—N-(1,2,3-trimethoxy-10-oxo-9-[(tetrahydrofuran-3-yl)oxy]-5,6,7,10-tetrahydrobenzo[a]heptalen-7-yl)acetamide], the “Pain versus model group, in words” value in data set [1] was “significantly improved gait at 2 h, 8 h, 10 h, 24 h, and 48 h”. The Pain score in data set [1] (2 h after modeling) is recorded as 2.00 ± 0.67; in data set [1] (4 h after modeling), 2.80 ± 0.68; in data set [1] (8 h after modeling) it was 3.30 ± 0.47; in data set [1] (10 h after modeling), 2.50 ± 0.65; in data set [1] (24 h after modeling), 1.50 ± 0.60; in data set [1] (48 h after modeling) it was 1.00 ± 0.60. In data set [1] (before modeling), this molecule had a Pain score of 0.00 ± 0.00. Moreover, the “Gait versus model group, in words” value in data set [2] is “significantly improved the gait at 2 h, 24 h, and 48 h”. Further, the Gait Score in data set [2] (2 h after modeling) was determined as 1.00 ± 0.00; in data set [2] (4 h after modeling), 1.10 ± 0.10; in data set [2] (8 h after modeling), 1.40 ± 0.22; in data set [2] (10 h after modeling) it was 1.20 ± 0.20; in data set [2] (24 h after modeling), 1.00 ± 0.00; in data set [2] (48 h after modeling), 1.00 ± 0.00. In data set [2] (before modeling), this molecule had a Gait Score of 0.00 ± 0.00. Moreover, the “Paw volume versus model group, in words” value in data set [3] (0.6 mg/kg gavage) was “significantly reduce the paw volume at 2 h, 4 h, 8 h, 10 h, and 48 h”. For the same molecule, the Paw volume is reported as 2.51 ± 0.04** cm^3 in data set [3] (setting [5]); 2.54 ± 0.03* cm^3 in data set [3] (setting [6]); 2.57 ± 0.04* cm^3 in data set [3] (setting [7]); 2.55 ± 0.04* cm^3 in data set [3] (setting [8]); 2.50 ± 0.07 cm^3 in data set [3] (setting [9]); 2.29 ± 0.04** cm^3 in data set [3] (setting [10]). The Paw volume in data set [3] (setting [11]) was 2.16 ± 0.04 cm^3.

In general, Cmax refers to the highest concentration seen after dosing. By Tmax is commonly meant the time from dosing to the highest level. As for `[2H]C([2H])([2H])NC(=O)c1ccc2c(cc1=O)[C@@H](NC(C)=O)CCc1cc(OC)c(OC)c(OC)c1-2` [Compound 56, (S)-7-acetamido-1,2,3-trimethoxy-N-(trideuterio)methyl-9-oxo-5,6,7,9-tetrahydrobenzo[a]heptalen-10-carboxamide], the F in data set [4] (setting [12]) is given as 62.3%. In data set [4] (setting [13]), this molecule had an AUC(0-inf) of 597 ng·h/mL, an MRT inf of 0.582 h, a Vd of 0.977 L/kg and a clearance of 28.7 mL/min/kg. Further, the half-life in data set [4] (setting [13]) was 0.59 h. Besides, in data set [4] (setting [14]), the AUC(0-inf) is 3720 ng·h/mL, the Cmax came out at 1640 ng/mL, the MRT inf worked out at 2.2 h and the Tmax stood at 0.417 h. This molecule showed a half-life in data set [4] (setting [14]) of 1.27 h.

Consider `[2H]C([2H])([2H])Oc1cc2c(c(OC)c1OC([2H])([2H])[2H])-c1ccc(C(=O)NC)c(=O)cc1[C@@H](NC(C)=O)CC2` [Compound 124, (S)-7-acetamido-1-methoxy-2,3-bis(trideuteromethoxy)-N-methyl-9-oxo-5,6,7,9-tetrahydrobenzo[a] heptalen-10-carboxamide], for which the F in data set [4] (setting [12]) is reported as 44.7%. In data set [4] (setting [13]), this molecule gave an AUC(0-inf) of 756 ng·h/mL, an MRT inf of 0.652 h, a Vd of 0.864 L/kg and a clearance of 22.3 mL/min/kg. In data set [4] (setting [13]), this molecule had a half-life of 0.644 h. For the same molecule, in data set [4] (setting [14]), the AUC(0-inf) came to 3380 ng·h/mL, the Cmax came out at 2260 ng/mL, the MRT inf is 1.71 h and the Tmax came to 0.333 h. This molecule also had a half-life in data set [4] (setting [14]) of 1.38 h.

On to `CNC(=O)c1ccc2c(cc1=O)[C@@H](NC(C)=O)CCc1cc3c(c(OC)c1-2)OCO3` [Compound 125, (S)-6-acetamido-13-methoxy-N-methyl-4-oxo-4,6,7,8-tetrahydroheptalen[1′,2′:4,5]benzo[1,2-d][1,3]dioxolane-3-carboxamide], for which the F in data set [4] (Gavage - 10 mg/kg, calculated by AUCINF) is on record as 93.0%. The AUC(0-inf) in data set [4] (Sprague-Dawley, rat, in vivo, po, Gavage - 10 mg/kg, read-out: AUCINF) stood at 5460 ng·h/mL; in data set [4] (Sprague-Dawley, rat, in vivo, Intravenous injection - 1 mg/kg, read-out: AUCINF) it was 587 ng·h/mL. Further, in data set [4] (Sprague-Dawley, rat, in vivo, po, Gavage - 10 mg/kg, read-out: Cmax), the Cmax stood at 4150 ng/mL. For the same molecule, the MRT inf in data set [4] (Sprague-Dawley, rat, in vivo, po, Gavage - 10 mg/kg, read-out: MRTINF) came to 1.8 h; in data set [4] (Sprague-Dawley, rat, in vivo, Intravenous injection - 1 mg/kg, read-out: MRTINF), 0.675 h. In addition, the Tmax in data set [4] (Sprague-Dawley, rat, in vivo, po, Gavage - 10 mg/kg, read-out: Tmax) is 0.25 h. In addition, the half-life is 3.33 h in data set [4] (Sprague-Dawley, rat, in vivo, po, Gavage - 10 mg/kg, read-out: t1/2 (converted)) and 1.19 h in data set [4] (Sprague-Dawley, rat, in vivo, Intravenous injection - 1 mg/kg, read-out: t1/2 (converted)). The clearance in data set [4] (Sprague-Dawley, rat, in vivo, Intravenous injection - 1 mg/kg, read-out: CL (converted)) is 28.5 mL/min/kg. Besides, the Vd in data set [4] (Sprague-Dawley, rat, in vivo, Intravenous injection - 1 mg/kg, read-out: VSS) was determined as 1.15 L/kg.

Regarding `[2H]C([2H])([2H])Oc1c(OC)c(OC)cc2c1-c1ccc(C(=O)NC)c(=O)cc1[C@@H](NC(C)=O)CC2` [Compound 132, (S)-7-acetamido-2,3-dimethoxy-1-trideuteromethoxy-N-methyl-9-oxo-5,6,7,9-tetrahydrobenzo[a]heptalen-10-carboxamide], the F in data set [4] (setting [12]) is given as 47.5%. In data set [4] (setting [13]), the AUC(0-inf) is 702 ng·h/mL, the MRT inf came to 1.06 h, the Vd was 1.39 L/kg and the clearance is 24.3 mL/min/kg. Also, the half-life in data set [4] (setting [13]) was 2.12 h. Besides, in data set [4] (setting [14]), the AUC(0-inf) came out at 3340 ng·h/mL, the highest level (Cmax) was 1780 ng/mL, the MRT inf was determined as 2.1 h and the Tmax is 0.25 h. In data set [4] (setting [14]), this molecule showed a half-life of 1.39 h.
